Drawing on patent US12448392B2, “Spiropiperidine derivatives” (89BIO LTD, priority 2016, dated 2025), this text covers IC50 for 28 molecules.

For one assay, the target named is T1, recombinant human baculovirus-expressed GST-tagged FASN (Homo sapiens, UniProt P49327).
T1 construct: GST
T1 sequence (P49327 whole entry): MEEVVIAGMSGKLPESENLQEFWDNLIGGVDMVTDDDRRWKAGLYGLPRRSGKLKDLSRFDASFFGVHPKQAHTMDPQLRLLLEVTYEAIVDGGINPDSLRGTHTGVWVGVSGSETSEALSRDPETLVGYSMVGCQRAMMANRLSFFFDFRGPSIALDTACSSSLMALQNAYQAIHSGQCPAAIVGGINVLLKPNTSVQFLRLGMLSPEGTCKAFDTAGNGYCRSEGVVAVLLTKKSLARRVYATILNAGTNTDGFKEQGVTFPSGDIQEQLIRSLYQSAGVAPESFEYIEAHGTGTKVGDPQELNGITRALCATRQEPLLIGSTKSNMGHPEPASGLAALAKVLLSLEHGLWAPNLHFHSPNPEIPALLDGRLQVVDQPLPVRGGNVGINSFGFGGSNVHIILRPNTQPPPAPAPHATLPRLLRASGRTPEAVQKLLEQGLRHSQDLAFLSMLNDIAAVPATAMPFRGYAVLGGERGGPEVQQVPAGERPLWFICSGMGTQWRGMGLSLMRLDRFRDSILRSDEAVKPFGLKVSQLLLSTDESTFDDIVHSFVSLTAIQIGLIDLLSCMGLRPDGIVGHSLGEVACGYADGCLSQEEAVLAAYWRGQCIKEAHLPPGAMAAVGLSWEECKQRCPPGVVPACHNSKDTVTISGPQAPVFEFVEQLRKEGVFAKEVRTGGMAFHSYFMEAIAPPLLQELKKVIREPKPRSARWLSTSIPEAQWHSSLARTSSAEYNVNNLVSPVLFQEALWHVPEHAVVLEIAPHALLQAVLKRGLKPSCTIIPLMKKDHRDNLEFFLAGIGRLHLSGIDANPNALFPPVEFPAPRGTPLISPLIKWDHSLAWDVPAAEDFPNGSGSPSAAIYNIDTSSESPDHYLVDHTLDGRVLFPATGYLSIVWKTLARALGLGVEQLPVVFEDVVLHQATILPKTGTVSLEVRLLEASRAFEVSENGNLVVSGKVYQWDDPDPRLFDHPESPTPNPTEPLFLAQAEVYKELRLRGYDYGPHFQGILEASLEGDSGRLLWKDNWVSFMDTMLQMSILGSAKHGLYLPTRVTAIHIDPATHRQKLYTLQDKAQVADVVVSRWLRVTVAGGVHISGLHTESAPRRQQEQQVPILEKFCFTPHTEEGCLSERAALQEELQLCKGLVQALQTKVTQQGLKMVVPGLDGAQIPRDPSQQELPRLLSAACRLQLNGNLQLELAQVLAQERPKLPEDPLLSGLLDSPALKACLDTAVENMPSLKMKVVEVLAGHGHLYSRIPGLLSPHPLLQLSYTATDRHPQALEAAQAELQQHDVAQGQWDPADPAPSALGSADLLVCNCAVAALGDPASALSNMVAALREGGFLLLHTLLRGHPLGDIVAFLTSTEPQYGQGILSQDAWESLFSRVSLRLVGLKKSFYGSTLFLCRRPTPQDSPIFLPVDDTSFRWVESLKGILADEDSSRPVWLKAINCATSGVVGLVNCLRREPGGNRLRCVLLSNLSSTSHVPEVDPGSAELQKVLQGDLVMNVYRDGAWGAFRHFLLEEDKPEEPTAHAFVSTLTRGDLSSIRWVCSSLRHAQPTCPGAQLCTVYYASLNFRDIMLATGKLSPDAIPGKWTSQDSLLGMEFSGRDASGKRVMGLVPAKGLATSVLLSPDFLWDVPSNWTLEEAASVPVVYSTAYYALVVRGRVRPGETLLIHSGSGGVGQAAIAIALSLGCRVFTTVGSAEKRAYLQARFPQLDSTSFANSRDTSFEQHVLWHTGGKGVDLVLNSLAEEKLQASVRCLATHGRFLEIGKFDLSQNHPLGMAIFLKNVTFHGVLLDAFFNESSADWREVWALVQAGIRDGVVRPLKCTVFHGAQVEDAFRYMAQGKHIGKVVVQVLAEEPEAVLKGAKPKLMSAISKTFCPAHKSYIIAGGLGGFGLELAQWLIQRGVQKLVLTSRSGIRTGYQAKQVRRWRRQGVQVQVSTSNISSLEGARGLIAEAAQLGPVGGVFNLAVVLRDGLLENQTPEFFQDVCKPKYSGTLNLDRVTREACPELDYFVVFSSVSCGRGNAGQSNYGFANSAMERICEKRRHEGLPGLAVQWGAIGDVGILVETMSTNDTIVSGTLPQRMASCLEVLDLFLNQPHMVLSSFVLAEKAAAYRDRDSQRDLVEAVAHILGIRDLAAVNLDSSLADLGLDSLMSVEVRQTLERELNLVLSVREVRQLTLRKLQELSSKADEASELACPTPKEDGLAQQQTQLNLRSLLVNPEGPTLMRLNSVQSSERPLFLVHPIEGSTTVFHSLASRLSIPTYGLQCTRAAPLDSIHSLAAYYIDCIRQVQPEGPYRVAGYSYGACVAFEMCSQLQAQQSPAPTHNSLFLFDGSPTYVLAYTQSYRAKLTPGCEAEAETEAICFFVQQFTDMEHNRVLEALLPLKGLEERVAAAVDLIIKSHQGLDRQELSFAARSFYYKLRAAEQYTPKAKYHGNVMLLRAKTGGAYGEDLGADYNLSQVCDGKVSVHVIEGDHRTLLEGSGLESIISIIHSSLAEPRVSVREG
Put plainly: biochemical.
Details: not given
Consider `O=C(NOC1CCCCO1)N1CCC2(CC1)OCc1cc(-c3cc4ccccc4cn3)ccc1O2` (stereo not shown) [Example 144, 6-(3-Isoquinolyl)-N-tetrahydropyran-2-yloxy-spiro[4H-1,3-benzodioxine-2,4′-piperidine]-1′-carboxamide], for which the IC50 (in general, the concentration that gives 50% inhibition) lay within 100 to 999 nM.

Take `CCONC(=O)N1CCC2(CC1)OCc1cc(-c3cc4ccccc4cn3)ccc1O2` [Example 145, N-Ethoxy-6-(3-isoquinolyl)spiro[4H-1,3-benzodioxine-2,4′-piperidine]-1′-carboxamide]: the IC50 lay in the range of 1 to 99 nM.

Consider `CONC(=O)N1CCC2(CC1)OCc1cc(-c3cc4ccccc4cn3)ccc1O2` [Example 147, 6-(3-Isoquinolyl)-N-methoxy-spiro[4H-1,3-benzodioxine-2,4′-piperidine]-1′-carboxamide], for which the IC50 was in the range of 1 to 99 nM.

As for `O=C(NO)N1CCC2(CC1)OCc1cc(-c3cc4ccccc4cn3)ccc1O2` [Example 150, 6-(3-Isoquinolyl)spiro[4H-1,3-benzodioxine-2,4′-piperidine]-1′-carbohydroxamic acid], the IC50 lay in the range of 1000 to 10000 nM.

The assay is the same for the next values; noted with them: 5 nM FASN, 150 μM NADPH, 10 μM acetyl-CoA, 25 μM malonyl-CoA, 90 minutes incubation; read-out: IC50 data for Compounds of Formula I, Activity.
`NC(=O)N1CCC2(CCc3cc(-c4cc5ccccc5cn4)ccc3O2)CC1` [Example 143, 6-(3-Isoquinolyl)spiro[chromane-2,4′-piperidine]-1′-carboxamide]: the IC50 was in the range of 1000 to 10000 nM.

As to `O=C(NOC1CCCCO1)N1CCC2(CCc3cc(-c4cc5ccccc5cn4)ccc3O2)CC1` (stereo not shown) [Example 146, 6-(3-Isoquinolyl)-N-tetrahydropyran-2-yloxy-spiro[chromane-2,4′-piperidine]-1′-carboxamide], the IC50 is 100 to 999 nM.

With `CONC(=O)N1CCC2(CCc3cc(-c4cc5ccccc5cn4)ccc3O2)CC1` [Example 148, 6-(3-Isoquinolyl)-N-methoxy-spiro[chromane-2,4′-piperidine]-1′-carboxamide], the IC50 lay within 1 to 99 nM.

As for `CCONC(=O)N1CCC2(CCc3cc(-c4cc5ccccc5cn4)ccc3O2)CC1` [Example 149, N-Ethoxy-6-(3-isoquinolyl)spiro[chromane-2,4′-piperidine]-1′-carboxamide], the IC50 fell in the range of 1 to 99 nM.

Regarding `O=C(NO)N1CCC2(CCc3cc(-c4cc5ccccc5cn4)ccc3O2)CC1` [Example 151, 6-(3-Isoquinolyl)spiro[chromane-2,4′-piperidine]-1′-carbohydroxamic acid], the IC50 was in the range of 1000 to 10000 nM.

As for `Cc1c(-c2ccc3c(c2)CC2(CCN(C(N)=O)CC2)O3)ccc2cccnc12` [Example 152, 5-(8-Methyl-7-quinolyl)spiro[3H-benzofuran-2,4′-piperidine]-1′-carboxamide], the IC50 fell in the range of 1 to 99 nM.

As to `CONC(=O)N1CCC2(CC1)Cc1cc(-c3ccc4cccnc4c3C)ccc1O2` [Example 153, N-Methoxy-5-(8-methyl-7-quinolyl)spiro[3H-benzofuran-2,4′-piperidine]-1′-carboxamide], the IC50 was 1000 to 10000 nM.

Take `CCONC(=O)N1CCC2(CC1)Cc1cc(-c3ccc4cccnc4c3C)ccc1O2` [Example 154, N-Ethoxy-5-(8-methyl-7-quinolyl)spiro[3H-benzofuran-2,4′-piperidine]-1′-carboxamide]: the IC50 was 1000 to 10000 nM.

Consider `Cc1c(-c2ccc3c(c2)CC2(CCN(C(=O)NO)CC2)O3)ccc2cccnc12` [Example 155, 5-(8-Methyl-7-quinolyl)spiro[3H-benzofuran-2,4′-piperidine]-1′-carbohydroxamic acid], for which the IC50 fell in the range of 1000 to 10000 nM.

With `CCNC(=O)N1CCC2(CC1)Cc1cc(-c3ccc4cccnc4c3C)ccc1O2` [Example 156, N-Ethyl-5-(8-methyl-7-quinolyl)spiro[3H-benzofuran-2,4′-piperidine]-1′-carboxamide], the half-maximal inhibitory concentration (IC50) was in the range of 1000 to 10000 nM.

As for `CONC(=O)N1CCC2(CC1)Cc1cc(-c3cnc4ccccc4c3C)ccc1O2` [Example 157, N-Methoxy-5-(4-methyl-3-quinolyl)spiro[3H-benzofuran-2,4′-piperidine]-1′-carboxamide], the IC50 was in the range of 1000 to 10000 nM.

Turning to `CCONC(=O)N1CCC2(CC1)Cc1cc(-c3cnc4ccccc4c3C)ccc1O2` [Example 158, N-ethoxy-5-(4-methyl-3-quinolyl)spiro[3H-benzofuran-2,4′-piperidine]-1′-carboxamide], the IC50 fell in the range of 1000 to 10000 nM.

Turning to `Cc1c(-c2ccc3c(c2)CC2(CCN(C(N)=O)CC2)O3)cnc2ccccc12` [Example 159, 5-(4-Methyl-3-quinolyl)spiro[3H-benzofuran-2,4′-piperidine]-1′-carboxamide], the IC50 lay in the range of 1000 to 10000 nM.

With `CCNC(=O)N1CCC2(CC1)Cc1cc(-c3cnc4ccccc4c3C)ccc1O2` [Example 160, N-Ethyl-5-(4-methyl-3-quinolyl)spiro[3H-benzofuran-2,4′-piperidine]-1′-carboxamide], the IC50 lay within 1000 to 10000 nM.

With `Cc1c(-c2ccc3c(c2)CC2(CCN(C(=O)NO)CC2)O3)cnc2ccccc12` [Example 161, 5-(4-Methyl-3-quinolyl)spiro[3H-benzofuran-2,4′-piperidine]-1′-carbohydroxamic acid], the IC50 lay within 1000 to 10000 nM.

As to `COc1c(-c2ccc3c(c2)CC2(CCN(C(N)=O)CC2)O3)ccc2cccnc12` [Example 162, 5-(8-Methoxy-7-quinolyl)spiro[3H-benzofuran-2,4′-piperidine]-1′-carboxamide], the IC50 is 1000 to 10000 nM.

Consider `CCNC(=O)N1CCC2(CC1)Cc1cc(-c3ccc4cccnc4c3OC)ccc1O2` [Example 163, N-Ethyl-5-(8-methoxy-7-quinolyl)spiro[3H-benzofuran-2,4′-piperidine]-1′-carboxamide], for which the 50% inhibitory concentration (IC50) lay within 1000 to 10000 nM.

With `Cc1c(-c2ccc3c(c2)CC2(CCN(C(N)=O)CC2)O3)ccc2ccnn12` [Example 164, 5-(7-Methylpyrazolo[1,5-a]pyridin-6-yl)spiro[3H-benzofuran-2,4′-piperidine]-1′-carboxamide], the IC50 fell in the range of 1000 to 10000 nM.

As for `CCNC(=O)N1CCC2(CC1)Cc1cc(-c3ccc4ccnn4c3C)ccc1O2` [Example 165, N-Ethyl-5-(7-methylpyrazolo[1,5-a]pyridin-6-yl)spiro[3H-benzofuran-2,4′-piperidine]-1′-carboxamide], the IC50 fell in the range of 1000 to 10000 nM.

For the molecule `CONC(=O)N1CCC2(CC1)Cc1cc(-c3ccc4cccnc4c3OC)ccc1O2` [Example 166, N-Methoxy-5-(8-methoxy-7-quinolyl)spiro[3H-benzofuran-2,4′-piperidine]-1′-carboxamide], the IC50 fell in the range of 1000 to 10000 nM.

`CCONC(=O)N1CCC2(CC1)Cc1cc(-c3ccc4cccnc4c3OC)ccc1O2` [Example 167, N-Ethoxy-5-(8-methoxy-7-quinolyl)spiro[3H-benzofuran-2,4′-piperidine]-1′-carboxamide]: the IC50 fell in the range of 1000 to 10000 nM.

Turning to `COc1c(-c2ccc3c(c2)CC2(CCN(C(=O)NOC4CCCCO4)CC2)O3)ccc2cccnc12` (stereo not shown) [Example 168, 5-(8-Methoxy-7-quinolyl)-N-tetrahydropyran-2-yloxy-spiro[3H-benzofuran-2,4′-piperidine]-1′-carboxamide], the IC50 was in the range of 1000 to 10000 nM.

On to `CCONC(=O)N1CCC2(CC1)Cc1cc(-c3ccc4ccnn4c3C)ccc1O2` [Example 169, N-Ethoxy-5-(7-methylpyrazolo[1,5-a]pyridin-6-yl)spiro[3H-benzofuran-2,4′-piperidine]-1′-carboxamide], for which the IC50 lay in the range of 1000 to 10000 nM.

In the case of `CONC(=O)N1CCC2(CC1)Cc1cc(-c3ccc4ccnn4c3C)ccc1O2` [Example 170, N-Methoxy-5-(7-methylpyrazolo[1,5-a]pyridin-6-yl)spiro[3H-benzofuran-2,4′-piperidine]-1′-carboxamide], the IC50 was in the range of 1000 to 10000 nM.
